According to paper PMC11563544 (Journal of Cerebral Blood Flow & Metabolism, 2024):

Tested on: alpha-2C adrenergic receptor (α2CR)
Assay: in vivo PET receptor occupancy, competition with […]ORM-13070
Parameters: species or system Macaca fascicularis

BAY 292
EC50: 0.03339 ± 0.01191 µg/mL
